# From article PMC10417023, “Imidazole-4-N-acetamide Derivatives as a Novel Scaffold for Selective Targeting of Cyclin Dependent Kinases” (Cancers, 2023)
# Where two headings read alike, the source gives them in different places.
# What was measured:
# Experiment in all cases: […]-ATP radiometric filter-binding kinase assay
# Type in all cases: biochemical
# CDK5/p35 = target: T1, CDK5/p35 (Homo sapiens, UniProt Q00535)
# T1 construct: purified CDK5/p35 complex
# CDK9/cyclin K = target: T2, CDK9/cyclin K (Homo sapiens, UniProt P50750)
# T2 construct: purified CDK9/cyclin K complex; with Cyclin-K
# T2 sequence (P50750 whole entry): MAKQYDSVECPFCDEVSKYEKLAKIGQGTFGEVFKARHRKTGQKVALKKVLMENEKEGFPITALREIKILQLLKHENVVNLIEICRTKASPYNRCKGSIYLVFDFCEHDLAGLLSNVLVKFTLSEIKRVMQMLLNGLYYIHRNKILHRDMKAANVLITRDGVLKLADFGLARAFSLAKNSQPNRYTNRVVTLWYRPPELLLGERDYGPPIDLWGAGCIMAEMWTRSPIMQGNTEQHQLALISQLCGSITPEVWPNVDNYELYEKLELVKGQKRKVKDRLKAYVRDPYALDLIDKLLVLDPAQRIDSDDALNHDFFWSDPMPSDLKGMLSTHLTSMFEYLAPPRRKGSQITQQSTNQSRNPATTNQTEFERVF
# T2 sequence (O75909 whole entry partner): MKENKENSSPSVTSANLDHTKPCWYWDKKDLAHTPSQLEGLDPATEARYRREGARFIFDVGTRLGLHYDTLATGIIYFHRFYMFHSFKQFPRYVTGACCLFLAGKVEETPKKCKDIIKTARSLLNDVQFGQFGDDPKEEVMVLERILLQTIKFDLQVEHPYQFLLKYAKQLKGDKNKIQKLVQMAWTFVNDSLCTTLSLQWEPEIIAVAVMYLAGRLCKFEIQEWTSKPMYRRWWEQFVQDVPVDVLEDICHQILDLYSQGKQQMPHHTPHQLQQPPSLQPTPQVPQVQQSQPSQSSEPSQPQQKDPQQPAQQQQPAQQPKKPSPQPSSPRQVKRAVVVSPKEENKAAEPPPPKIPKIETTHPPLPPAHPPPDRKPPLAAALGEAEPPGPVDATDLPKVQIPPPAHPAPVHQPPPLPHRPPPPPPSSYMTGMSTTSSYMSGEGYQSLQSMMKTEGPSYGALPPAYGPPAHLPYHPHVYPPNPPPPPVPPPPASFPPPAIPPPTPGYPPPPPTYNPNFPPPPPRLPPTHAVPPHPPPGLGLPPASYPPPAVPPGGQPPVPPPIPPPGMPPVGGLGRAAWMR
# CDK2/cyclin E = target: T3, CDK2/cyclin E (Homo sapiens, UniProt P24941)
# T3 construct: purified CDK/cyclin complex; with G1/S-specific cyclin-E1
# CDK1/cyclin E = target: T4, CDK1/cyclin E (Homo sapiens, UniProt P06493)
# T4 construct: purified CDK/cyclin complex; with G1/S-specific cyclin-E1
# T4 sequence (P06493 whole entry): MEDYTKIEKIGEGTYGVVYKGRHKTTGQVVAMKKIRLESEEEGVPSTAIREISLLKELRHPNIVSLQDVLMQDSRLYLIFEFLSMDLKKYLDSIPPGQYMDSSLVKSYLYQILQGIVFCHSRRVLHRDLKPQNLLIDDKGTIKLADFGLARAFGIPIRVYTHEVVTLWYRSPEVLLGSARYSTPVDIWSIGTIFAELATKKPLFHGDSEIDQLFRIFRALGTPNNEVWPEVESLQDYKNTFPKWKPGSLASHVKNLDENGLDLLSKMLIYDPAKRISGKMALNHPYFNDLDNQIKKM
# T4 sequence (P24864 whole entry partner): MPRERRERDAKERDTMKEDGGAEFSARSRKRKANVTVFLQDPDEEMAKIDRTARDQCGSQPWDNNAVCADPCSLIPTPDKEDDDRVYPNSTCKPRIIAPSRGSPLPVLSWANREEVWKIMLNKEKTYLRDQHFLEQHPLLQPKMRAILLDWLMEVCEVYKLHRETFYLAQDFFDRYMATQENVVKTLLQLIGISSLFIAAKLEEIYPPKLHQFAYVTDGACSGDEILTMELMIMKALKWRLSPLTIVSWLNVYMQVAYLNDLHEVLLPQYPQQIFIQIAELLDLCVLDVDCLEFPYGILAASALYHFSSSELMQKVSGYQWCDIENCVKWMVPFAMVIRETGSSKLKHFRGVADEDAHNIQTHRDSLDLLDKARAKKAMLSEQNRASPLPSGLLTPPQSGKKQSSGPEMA
# T1 sequence (Q00535 whole entry): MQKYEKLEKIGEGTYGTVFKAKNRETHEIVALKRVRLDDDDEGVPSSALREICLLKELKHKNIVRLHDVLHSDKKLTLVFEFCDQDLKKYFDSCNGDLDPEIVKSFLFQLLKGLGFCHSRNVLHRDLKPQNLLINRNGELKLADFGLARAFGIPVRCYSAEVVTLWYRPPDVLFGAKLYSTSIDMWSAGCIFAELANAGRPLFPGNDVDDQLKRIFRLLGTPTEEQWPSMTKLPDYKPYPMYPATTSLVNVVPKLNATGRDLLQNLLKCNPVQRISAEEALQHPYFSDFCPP
# T1 sequence (Q15078 2-307 partner): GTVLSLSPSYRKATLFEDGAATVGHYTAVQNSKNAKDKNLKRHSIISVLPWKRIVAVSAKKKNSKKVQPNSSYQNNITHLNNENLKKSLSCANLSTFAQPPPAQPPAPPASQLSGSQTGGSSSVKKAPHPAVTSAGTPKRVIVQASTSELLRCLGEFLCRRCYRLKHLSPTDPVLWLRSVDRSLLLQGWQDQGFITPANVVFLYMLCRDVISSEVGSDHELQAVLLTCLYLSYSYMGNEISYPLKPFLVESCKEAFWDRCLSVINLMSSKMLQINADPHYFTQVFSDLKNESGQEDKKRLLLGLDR
compound,measurement,setting,value
"CC(C(=O)Nc1cn(C(C)C)cn1)c1ccccc1 (racemic) [compound 3, Compound 3]",IC50,CDK5/p35; read-out: Compound 3,79 µM
same,IC50,CDK9/cyclin K; read-out: Compound 3,4.3 µM
same,IC50,CDK2/cyclin E; read-out: Compound 3,1.2 µM
same,IC50,CDK1/cyclin E; read-out: Compound 3,30 µM
"CC(C)n1cnc(NC(=O)Cc2ccccc2)c1 [compound 1, Compound 1]",IC50,CDK5/p35; read-out: Compound 1,40 µM
same,IC50,CDK9/cyclin K; read-out: Compound 1,3 µM
same,IC50,CDK2/cyclin E; read-out: Compound 1,0.71 µM
same,IC50,CDK1/cyclin E; read-out: Compound 1,14 µM
"CC(C)n1cnc(NC(=O)Cc2ccccc2O)c1 [compound 2, Compound 2]",IC50,CDK5/p35; read-out: Compound 2,0.88 µM
same,IC50,CDK9/cyclin K; read-out: Compound 2,1 µM
same,IC50,CDK2/cyclin E; read-out: Compound 2,0.16 µM
same,IC50,CDK1/cyclin E; read-out: Compound 2,0.72 µM
"CC(C)n1cnc(NC(=O)Cc2ccccn2)c1 [compound 4, Compound 4]",IC50,CDK5/p35; read-out: Compound 4,20 µM
same,IC50,CDK9/cyclin K; read-out: Compound 4,0.88 µM
same,IC50,CDK2/cyclin E; read-out: Compound 4,0.27 µM
same,IC50,CDK1/cyclin E; read-out: Compound 4,6.2 µM
